Reference: paper PMC6962712, “Glucose-6-Phosphate Upregulates Txnip Expression by Interacting With MondoA” (Frontiers in Molecular Biosciences, 2020)

Target: T1, MondoA/Mlx (Homo sapiens, UniProt Q9HAP2)
T1 construct: gene MLXIP; endogenous full-length MondoA/Mlx heterodimer in nuclear extract of Bcap37 cells, not purified; with Max-like protein X
T1 sequence (Q9HAP2 2-919): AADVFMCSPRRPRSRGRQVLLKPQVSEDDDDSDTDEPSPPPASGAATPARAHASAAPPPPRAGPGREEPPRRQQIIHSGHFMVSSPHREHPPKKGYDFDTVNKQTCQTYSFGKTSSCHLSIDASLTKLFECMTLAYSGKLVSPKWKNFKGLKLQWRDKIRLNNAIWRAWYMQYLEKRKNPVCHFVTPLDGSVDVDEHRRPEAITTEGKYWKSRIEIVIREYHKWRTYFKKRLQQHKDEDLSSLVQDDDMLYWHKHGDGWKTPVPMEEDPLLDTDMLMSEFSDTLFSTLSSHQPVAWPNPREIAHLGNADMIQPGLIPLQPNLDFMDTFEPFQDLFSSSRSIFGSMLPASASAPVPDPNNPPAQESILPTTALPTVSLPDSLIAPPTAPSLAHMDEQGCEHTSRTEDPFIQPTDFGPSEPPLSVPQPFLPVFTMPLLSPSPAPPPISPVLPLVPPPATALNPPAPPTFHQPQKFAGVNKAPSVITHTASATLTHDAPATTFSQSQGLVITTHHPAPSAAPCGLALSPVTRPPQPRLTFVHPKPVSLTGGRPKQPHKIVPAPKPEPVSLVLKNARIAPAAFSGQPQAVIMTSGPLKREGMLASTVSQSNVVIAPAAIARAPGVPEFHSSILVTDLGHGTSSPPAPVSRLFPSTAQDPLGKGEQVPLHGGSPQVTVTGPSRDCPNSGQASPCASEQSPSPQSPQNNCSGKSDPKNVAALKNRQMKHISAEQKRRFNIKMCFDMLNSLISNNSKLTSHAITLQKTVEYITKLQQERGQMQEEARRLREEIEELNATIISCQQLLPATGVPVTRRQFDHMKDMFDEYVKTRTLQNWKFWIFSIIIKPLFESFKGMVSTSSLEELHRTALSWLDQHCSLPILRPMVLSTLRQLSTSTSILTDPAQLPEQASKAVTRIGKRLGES
T1 sequence (Q9UH92 1-298 partner): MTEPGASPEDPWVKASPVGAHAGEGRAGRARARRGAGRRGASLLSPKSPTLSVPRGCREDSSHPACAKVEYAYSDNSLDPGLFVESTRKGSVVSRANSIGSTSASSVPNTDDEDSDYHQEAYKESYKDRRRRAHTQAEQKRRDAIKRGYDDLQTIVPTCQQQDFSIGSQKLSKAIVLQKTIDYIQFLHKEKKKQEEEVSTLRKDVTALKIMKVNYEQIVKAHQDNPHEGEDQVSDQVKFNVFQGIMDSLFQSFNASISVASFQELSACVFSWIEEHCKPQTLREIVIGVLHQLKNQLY
Experiment: EMSA, biotinylated Txnip ChoRE probe
Type: biochemical
Conditions: Bcap37 nuclear extract; G6PNa2 added in vitro (e.g. 0.05 and 0.25 mM); activator of promoter binding; indirect read-out, not a direct binding test

O=P(O)(O)OC[C@H]1OC(O)[C@H](O)[C@@H](O)[C@@H]1O (stereo partly shown) [G6PNa2]
EMSA, biotinylated Txnip ChoRE probe: binding of MondoA to the promoter probe was significantly promoted by the activation of G6PNa2
